Measured values published in patent US4965280A, “Antifungal carbinols” (E. I. Du Pont de Nemours and Company, priority 1989, dated 1990).
In brackets after ≈: the same amount, converted by molar mass. Where a name gives a salt, the structure may show the parent alone. Read-outs that look alike come from different tables or passages of the source.

Key:
[1] = tested on: Aspergillus fumigatus ATCC 28214; test: In vitro antifungal MIC, microtiter broth dilution; settings: for MIC: Aspergillus fumigatus, ATCC28214, 24 h; for MIC values, A. fumigatus: 30°, 24 hours
[2] = tested on: Candida albicans ATCC 11651; test: In vitro antifungal MIC, microtiter broth dilution; settings: for MIC: Candida albicans, ATCC11651, 24 h; for MIC values, C. albicans: 30°, 24 hours
[3] = tested on: Candida albicans ATCC 11651; test: In vivo systemic Candida infection in mice, primary assay; design: species or system Candida albicans; CF-1 female mice; settings: 150 mg/kg per day; for responders at 150 mg/kg: Candida albicans, read-out: % Survival
Source text: The […] activity of test compounds is based on the percent (%) survival of infected animals receiving test or standard agent compared to that in an infected untreated group (Table 6). The in vivo assays are chronic systemic infections lethal to mice within 7 days post infection, [J. Barnes, et al. Lab Investigation, 49 460-467 (1963), and T. Rogers and E. Balish, Infection and Immunity, 14 33-38 (1976)].
Candida albicans ATCC 11651, from a frozen stock culture (10^9 organisms/ml) maintained at -70°, is diluted in saline to 1×10^7 organisms/ml and 0.2 ml inoculated intravenously (caudal vein) into 20.0 gm CF-1 female mice (Charles River).
Test compounds are routinely solubilized in 0.25% (w/v) methylcellulose (Methocel®) but for those compounds difficult to solubilize 10% (w/v) Emulophor® (EL620 GAF Corp.) is used. The standard antifungal agents, amphotericin B (Fungizone®) in water and ketoconazole (Nizoral®) in Methocel®, are administered at 1.0 mg/kg/day and 150 mg/kg/day, respectively.
In a primary assay, mice (10 per group) are infected with C. albicans, and receive test compounds at 50 or 150 mg/kg/day via the subcutaneous route. Animals are dosed with the test compound at 1 and 6 hour post-infection and then once daily for the next three days. Survival of mice in each group is recorded for 21 days.
Compounds which protect ≥70% of the infected animals for 14 days at a dose 150 mg/kg/day or less are viewed as active.

Phytophthora infestans = test: whole plant or invertebrate; format: in vivo; settings: Phytophthora infestans, in Solanum lycopersicum, read-out: disease control rating, Ex. H, 100 PPM
Puccinia recondita = test: Example G wheat leaf rust; format: in vivo; settings: 100 PPM, read-out: disease control rating, Ex. G
Rhizoctonia solani = test: Example F rice sheath blight; format: in vivo; settings: Rhizoctonia solani, 144 h, 100 PPM; read-out: disease control rating, Ex. F
Experimental: (§1) The test compounds were dissolved in acetone in an amount equal to 6% of the final volume and then suspended at a concentration of 100 or 20 ppm in purified water containing 250 ppm of the surfactant TREM 014 (polyhydric alcohol esters). This suspension was sprayed to the point of run-off on rice seedlings.

Pyricularia oryzae = test: whole plant or invertebrate; format: in vivo; settings: Pyricularia oryzae, 120 h, read-out: disease control rating, Ex. E, 100 PPM
[4] = tested on: Cercosporidium personatum; test: Example B Peanut Late Leafspot; format: in vivo; settings: Nothopassalora personata; 100 PPM; read-out: disease control rating, Ex. B
Experimental: as §1, with “peanut” for “rice”

Botrytis cinerea = test: Example C bean grey mold; format: in vivo; settings: Botrytis cinerea, 24 h, 100 PPM; read-out: disease control rating, Ex. C
Experimental: as §1, with “broad bean” for “rice”

Plasmorpara viticola = test: Example I grape downy mildew; format: in vivo; settings: read-out: disease control rating, Ex. I
Experimental: as §1, with “grape” for “rice”

[5] = read-out: MIC values, A. fumigatus, 30°, 24 hours
[6] = read-out: MIC values, C. albicans, 30°, 24 hours

For `Clc1ccc(COC(Cn2ccnc2)c2ccc(Cl)cc2Cl)c(Cl)c1` (stereo not drawn) [Miconazole, reference compound], the MIC ([1]; read-out: MIC values, A. fumigatus) was 1.3 µg/mL (≈ 3.12 µM) and the MIC ([2]; read-out: MIC values, C. albicans) was ≤ 0.1 µg/mL.
`OC(Cn1cncn1)(c1ccc(F)cc1)C1(c2ccc(F)cc2)CO1` (single isomer, unassigned) [Example 1487, 2,3-bis(4-fluorophenyl)-1-(1H-1,2,4-triazol-1-yl)-3,4-epoxy-2-butanol] was tested, and the MIC [1, 5] was 6.3 µg/mL (≈ 18.3 µM), the MIC [2, 6] was 0.4 µg/mL (≈ 1.17 µM) and the responders at 150 mg/kg ([3]; ATCC11651, 168 h, day 7) was 100%. It also gave a responders at 150 mg/kg ([3]; ATCC11651, 336 h, day 14) of 100% and a responders at 150 mg/kg ([3]; ATCC11651, 504 h, day 21) of 70%.
For `C[C@@H]1[C@H](O)[C@@H](C)/C=C/C=C/CC/C=C/C=C/C=C/C=C/C(O[C@H]2O[C@H](C)[C@@H](O)[C@H](N)[C@@H]2O)CC2O[C@](O)(CC(O)C(O)CCC(O)CC(O)CC(O)CC(=O)O[C@H]1C)CC(O)C2C(=O)O` (stereo partly drawn) [Nystatin, reference compound], the “MIC values, A. fumigatus” value [1] was 3.0 ± 1.0 µg/mL (≈ 3.24 µM) and the “MIC values, C. albicans” value [2] was 1.3 ± 0 µg/mL (≈ 1.4 µM).
For `C=C(c1cccc(C(F)(F)F)c1)C(O)(Cn1cncn1)c1ccc(F)cc1` (stereo not drawn) [Example 725], the responders at 150 mg/kg ([3]; ATCC11651, 168 h, day 7) was 90%, the responders at 150 mg/kg ([3]; ATCC11651, 336 h, day 14) was 90% and the responders at 150 mg/kg ([3]; ATCC11651, 504 h, day 21) was 40%.
In the case of `CC=C(c1ccccc1)C(O)(Cn1cncn1)c1ccc(F)cc1` (stereo not drawn) [Example 286], the MIC [1, 5] is reported as 25 µg/mL (≈ 77.3 µM), the MIC [2, 6] is reported as 0.4 µg/mL (≈ 1.24 µM) and the responders at 150 mg/kg ([3]; ATCC11651, 168 h, day 7) is reported as 100%. For the same compound, the responders at 150 mg/kg ([3]; ATCC11651, 336 h, day 14) was 50% and the responders at 150 mg/kg ([3]; ATCC11651, 504 h, day 21) was 20%.
For `C=C(c1ccccc1Cl)C(O)(Cn1cncn1)c1ccc(F)cc1F` (stereo not drawn) [35 HCl salt], the “MIC values, A. fumigatus” value [1] was ≤ 0.2 µg/mL and the “MIC values, C. albicans” value [2] was 0.03 µg/mL.
`C=C(c1ccc(F)cc1)C(O)(Cn1cncn1)c1ccc(F)cc1` (stereo not drawn) [1 HCl salt] was tested, and the “MIC values, A. fumigatus” value [1] was 12.5 µg/mL and the “MIC values, C. albicans” value [2] was 0.05 µg/mL.
`C=C(c1ccccc1Cl)C(O)(Cn1cncn1)c1ccc(Cl)cc1` (stereo not drawn) [34 HCl salt] was tested, and the “MIC values, A. fumigatus” value [1] was 1.6 µg/mL and the “MIC values, C. albicans” value [2] was 0.03 µg/mL.
Work on `Nc1nc(=O)[nH]cc1F` [5-Fluorocytosine, reference compound] yielded an MIC [1, 5] of 5.7 ± 4 µg/mL (≈ 44.2 µM) and an MIC [2, 6] of 0.14 ± 0.1 µg/mL (≈ 1.08 µM).
For `C=C(CO)C(O)(Cn1cncn1)c1ccccc1` (stereo not drawn) [Example 448], the pest or weed control at 100 ppm (Phytophthora infestans) was 0%, the pest or weed control at 100 ppm (Puccinia recondita) was 16% and the pest or weed control at 100 ppm (Rhizoctonia solani) was 42%. It also gave a pest or weed control at 100 ppm (Pyricularia oryzae) of 0%, a pest or weed control at 100 ppm [4] of 0% and a pest or weed control at 100 ppm (Botrytis cinerea) of 54%. For the same compound, the pest or weed control at 100 ppm (Plasmorpara viticola) was 0%.
For `C=C(c1ccc(Cl)cc1)C(O)(Cn1cncn1)c1ccc(Cl)cc1Cl` (stereo not drawn) [Example 26 HCl salt], the “% Survival” value ([3]; day 7) was 100%, the “% Survival” value ([3]; day 14, listed as 26 salt) was 90% and the “% Survival” value ([3]; day 21, listed as 26 salt) was 80%.
With `C=C(c1ccc(F)cc1)C(O)(c1ccc(F)cc1)C(F)n1cncn1` (stereo not drawn) [Example 1258] the MIC [1, 5] was > 100 µg/mL and the MIC [2, 6] was 1.6 µg/mL (≈ 4.63 µM).
Work on `C=C(c1ccc(C(C)(C)C)cc1)C(O)(Cn1cncn1)c1ccc(Cl)cc1` (stereo not drawn) [Example 117] yielded an MIC [1, 5] of 100 µg/mL (≈ 262 µM), an MIC [2, 6] of 0.4 µg/mL (≈ 1.05 µM) and a responders at 150 mg/kg ([3]; ATCC11651, 168 h, day 7) of 60%. It also gave a responders at 150 mg/kg ([3]; ATCC11651, 336 h, day 14) of 0% and a responders at 150 mg/kg ([3]; ATCC11651, 504 h, day 21) of 0%.
